Results reported in ChEMBL document CHEMBL6153040, “Discovery of the salicylaldehyde-based compound DDO-02267 as a lysine-targeting covalent inhibitor of ALKBH5” (Eur J Med Chem, 2025).
Activity calls are given as the source filed them. No cut-off for these calls is given here.

Assays:
RNA demethylase ALKBH5 [1] = molecular target: T1, RNA demethylase ALKBH5 (Homo sapiens, UniProt Q6P6C2); assay: Inhibition of ALKBH5 (66 to 292 residues) (unknown origin) extracted from Escherichia coli BL21 (DE3) cells using m6A ssDNA as substrate measured after 6 hrs by fluorescence polarization assay
Target sequence in this assay (Q6P6C2 whole entry, the tested form may be a part): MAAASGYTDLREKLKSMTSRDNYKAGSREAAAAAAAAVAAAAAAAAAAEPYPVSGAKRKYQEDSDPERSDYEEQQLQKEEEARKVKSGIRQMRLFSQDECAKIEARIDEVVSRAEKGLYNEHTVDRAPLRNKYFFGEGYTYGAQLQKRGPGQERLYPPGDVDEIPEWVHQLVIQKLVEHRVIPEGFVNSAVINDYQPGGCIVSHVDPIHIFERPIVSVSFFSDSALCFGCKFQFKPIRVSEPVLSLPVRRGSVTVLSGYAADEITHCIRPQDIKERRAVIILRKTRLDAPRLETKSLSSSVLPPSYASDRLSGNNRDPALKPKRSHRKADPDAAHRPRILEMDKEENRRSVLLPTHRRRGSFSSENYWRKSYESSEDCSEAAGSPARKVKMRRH

RNA demethylase ALKBH5 [2] = molecular target: T1, RNA demethylase ALKBH5; assay: Inhibition of ALKBH5 (66 to 292 residues) (unknown origin) extracted from Escherichia coli BL21 (DE3) cells using m6A ssDNA as substrate measured after 1 hrs by fluorescence polarization assay
Target sequence in this assay (Q6P6C2 whole entry, the tested form may be a part): as above

RNA demethylase ALKBH5 [3] = molecular target: T1, RNA demethylase ALKBH5; assay: Inhibition of ALKBH5 (66 to 292 residues) (unknown origin) extracted from Escherichia coli BL21 (DE3) cells using m6A ssDNA as substrate measured immediately by fluorescence polarization assay
Target sequence in this assay (Q6P6C2 whole entry, the tested form may be a part): as above

RNA demethylase ALKBH5 [4] = molecular target: T1, RNA demethylase ALKBH5; assay: Inhibition of ALKBH5 (66 to 292 residues) (unknown origin) extracted from Escherichia coli BL21 (DE3) cells using m6A ssDNA as substrate measured after 2 hrs by fluorescence polarization assay
Target sequence in this assay (Q6P6C2 whole entry, the tested form may be a part): as above

RNA demethylase ALKBH5 [5] = molecular target: T1, RNA demethylase ALKBH5; assay: Inhibition of ALKBH5 (66 to 292 residues) (unknown origin) demethylase activity extracted from Escherichia coli BL21 (DE3) cells at 200 uM preincubated for 3 hrs and measured after compound washout by small molecule dilution method
Target sequence in this assay (Q6P6C2 2-394 limits assumed): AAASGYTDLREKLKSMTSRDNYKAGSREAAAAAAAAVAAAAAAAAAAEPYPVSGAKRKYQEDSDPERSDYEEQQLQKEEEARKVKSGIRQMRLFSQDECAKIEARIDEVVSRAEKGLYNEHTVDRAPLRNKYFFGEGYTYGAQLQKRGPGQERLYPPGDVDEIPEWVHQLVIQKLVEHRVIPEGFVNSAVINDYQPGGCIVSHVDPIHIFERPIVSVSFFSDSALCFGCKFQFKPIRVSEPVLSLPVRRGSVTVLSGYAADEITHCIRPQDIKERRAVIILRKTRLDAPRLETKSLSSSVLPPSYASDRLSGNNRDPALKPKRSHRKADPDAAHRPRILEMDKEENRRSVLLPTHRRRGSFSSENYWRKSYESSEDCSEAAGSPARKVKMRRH

RNA demethylase ALKBH5 [6] = molecular target: T1, RNA demethylase ALKBH5; assay: Binding affinity to ALKBH5 (66 to 292 residues) (unknown origin) extracted from Escherichia coli BL21 (DE3) cells assessed as dissociation constant incubated for 1.5 hrs by MST analysis
Target sequence in this assay (Q6P6C2 whole entry, the tested form may be a part): as the sequence (Q6P6C2 whole entry, the tested form may be a part) above

RNA demethylase ALKBH5 [7] = molecular target: T1, RNA demethylase ALKBH5; assay: Inhibition of ALKBH5 (66 to 292 residues) (unknown origin) extracted from Escherichia coli BL21 (DE3) cells using m6A ssDNA as substrate at 1.25 to 10 uM incubated for 2 hrs in presence of 2-OG by TBE-PAGE based restriction enzyme digestion assay; conditions: dose 1.25-10 µM
Target sequence in this assay (Q6P6C2 2-394 limits assumed): as the sequence (Q6P6C2 2-394 limits assumed) above

RNA demethylase ALKBH5 [8] = molecular target: T1, RNA demethylase ALKBH5; assay: Binding affinity to ALKBH5 (66 to 292 residues) (unknown origin) extracted from Escherichia coli BL21 (DE3) cells assessed as dissociation constant incubated for 3 hrs by MST analysis
Target sequence in this assay (Q6P6C2 whole entry, the tested form may be a part): as the sequence (Q6P6C2 whole entry, the tested form may be a part) above

RNA demethylase ALKBH5 [9] = molecular target: T1, RNA demethylase ALKBH5; assay: Binding affinity to ALKBH5 (66 to 292 residues) (unknown origin) extracted from Escherichia coli BL21 (DE3) cells assessed as dissociation constant incubated for 4 hrs by MST analysis
RNA demethylase ALKBH5 [10] = molecular target: T1, RNA demethylase ALKBH5; assay: Binding affinity to ALKBH5 (66 to 292 residues) (unknown origin) extracted from Escherichia coli BL21 (DE3) cells assessed as dissociation constant incubated for 1 hrs by MST analysis
RNA demethylase ALKBH5 [11] = molecular target: T1, RNA demethylase ALKBH5; assay: Inhibition of ALKBH5 (66 to 292 residues) (unknown origin) extracted from Escherichia coli BL21 (DE3) cells using m6A ssDNA as substrate incubated for 2 hrs by TBE-PAGE based restriction enzyme digestion assay
Target sequence in this assay (Q6P6C2 2-394 limits assumed): as the sequence (Q6P6C2 2-394 limits assumed) above

RNA demethylase ALKBH5 [12] = molecular target: T1, RNA demethylase ALKBH5; assay: Binding affinity to ALKBH5 (66 to 292 residues) (unknown origin) extracted from Escherichia coli BL21 (DE3) cells assessed as dissociation constant incubated for 5 hrs by MST analysis

SMILES: O=C(O)c1ccnc(C(=O)NS(=O)(=O)c2cccc(-c3ccccc3)c2)c1
- IC50 (RNA demethylase ALKBH5 [1]): 15 µM

SMILES: C=CC(=O)Nc1cccc(S(=O)(=O)NC(=O)c2cc(C(=O)O)ccn2)c1
- IC50 (RNA demethylase ALKBH5 [2]): 5.32 µM
- IC50 (RNA demethylase ALKBH5 [3]): 7.44 µM
- IC50 (RNA demethylase ALKBH5 [4]): 3.97 µM

SMILES: N#Cc1ccccc1S(=O)(=O)NC(=O)c1cc(C(=O)O)ccn1
- IC50 (RNA demethylase ALKBH5 [1]): > 200 µM

SMILES: COc1ccccc1S(=O)(=O)NC(=O)c1cc(C(=O)O)ccn1
- IC50 (RNA demethylase ALKBH5 [1]): > 200 µM

SMILES: N#Cc1ccc(S(=O)(=O)NC(=O)c2cc(C(=O)O)ccn2)cc1
- IC50 (RNA demethylase ALKBH5 [1]): 39.9 µM

SMILES: O=C(O)c1ccnc(C(=O)NS(=O)(=O)c2ccc3ccccc3c2)c1
- IC50 (RNA demethylase ALKBH5 [1]): 15.2 µM

SMILES: O=C(O)c1ccnc(C(=O)NS(=O)(=O)c2ccccc2)c1
- IC50 (RNA demethylase ALKBH5 [1]): 56.8 µM
- IC50 (RNA demethylase ALKBH5 [2]): 51.9 µM
- IC50 (RNA demethylase ALKBH5 [3]): 64.9 µM
- IC50 (RNA demethylase ALKBH5 [4]): 52.1 µM

SMILES: O=C(O)c1cccc(C(=O)NS(=O)(=O)c2ccccc2[N+](=O)[O-])c1
- IC50 (RNA demethylase ALKBH5 [1]): > 200 µM

SMILES: COC(=O)c1ccnc(C(=O)NS(=O)(=O)c2ccccc2[N+](=O)[O-])c1
- IC50 (RNA demethylase ALKBH5 [1]): > 200 µM

SMILES: O=C(O)c1ccnc(C(=O)NS(=O)(=O)c2cccc3ccccc23)c1
- IC50 (RNA demethylase ALKBH5 [1]): 12.7 µM
- inhibition (RNA demethylase ALKBH5 [5]): inactive
- Kd (RNA demethylase ALKBH5 [6]): 52.2 µM
- inhibition (RNA demethylase ALKBH5 [7]): inactive
- Kd (RNA demethylase ALKBH5 [8]): 63.9 µM
- Kd (RNA demethylase ALKBH5 [9]): 42 µM
- Kd (RNA demethylase ALKBH5 [10]): 58.7 µM
- inhibition (RNA demethylase ALKBH5 [11]): Active
- Kd (RNA demethylase ALKBH5 [12]): 61.7 µM

SMILES: O=C(CCl)Nc1cccc(S(=O)(=O)NC(=O)c2cc(C(=O)O)ccn2)c1
- IC50 (RNA demethylase ALKBH5 [2]): 15 µM
- IC50 (RNA demethylase ALKBH5 [3]): 30.6 µM
- IC50 (RNA demethylase ALKBH5 [4]): 10.4 µM

SMILES: CN(C(=O)c1cc(C(=O)O)ccn1)S(=O)(=O)c1ccccc1[N+](=O)[O-]
- IC50 (RNA demethylase ALKBH5 [1]): > 200 µM

SMILES: COc1ccc(S(=O)(=O)NC(=O)c2cc(C(=O)O)ccn2)cc1
- IC50 (RNA demethylase ALKBH5 [1]): 19.1 µM

SMILES: O=C(CCl)Nc1ccccc1S(=O)(=O)NC(=O)c1cc(C(=O)O)ccn1
- IC50 (RNA demethylase ALKBH5 [2]): 12.5 µM
- IC50 (RNA demethylase ALKBH5 [3]): 18.4 µM
- IC50 (RNA demethylase ALKBH5 [4]): 10.8 µM

SMILES: CC(=O)c1cc(S(=O)(=O)NC(=O)c2cc(C(=O)O)ccn2)c2ccccc2c1O
- IC50 (RNA demethylase ALKBH5 [2]): 5.81 µM
- IC50 (RNA demethylase ALKBH5 [3]): 8.56 µM
- IC50 (RNA demethylase ALKBH5 [4]): 5.52 µM

SMILES: CC(=O)c1cc(S(=O)(=O)NC(=O)c2cc(C(=O)O)ccn2)ccc1O
- IC50 (RNA demethylase ALKBH5 [2]): 6.5 µM
- IC50 (RNA demethylase ALKBH5 [3]): 14.8 µM
- IC50 (RNA demethylase ALKBH5 [4]): 4.38 µM

SMILES: O=C(O)c1ccnc(C(=O)NS(=O)(=O)c2ccccc2-c2ccccc2)c1
- IC50 (RNA demethylase ALKBH5 [1]): 82.1 µM

SMILES: O=C(O)c1ccnc(C(=O)NCc2ccccc2[N+](=O)[O-])c1
- IC50 (RNA demethylase ALKBH5 [1]): > 200 µM

SMILES: O=C(O)c1ccnc(C(=O)NS(=O)(=O)c2ccccc2C(F)(F)F)c1
- IC50 (RNA demethylase ALKBH5 [1]): > 200 µM

SMILES: O=C(OCc1ccc(C(F)(F)F)cc1)c1ccc(-c2cc3ncc(C(=O)c4c(O)ccc([N+](=O)[O-])c4O)cn3n2)cc1
- IC50 (RNA demethylase ALKBH5 [1]): 4.06 µM

SMILES: C=CC(=O)Nc1ccccc1S(=O)(=O)NC(=O)c1cc(C(=O)O)ccn1
- IC50 (RNA demethylase ALKBH5 [2]): 21.6 µM
- IC50 (RNA demethylase ALKBH5 [3]): 21.2 µM
- IC50 (RNA demethylase ALKBH5 [4]): 19.2 µM

SMILES: N#Cc1cccc(S(=O)(=O)NC(=O)c2cc(C(=O)O)ccn2)c1
- IC50 (RNA demethylase ALKBH5 [1]): > 200 µM

SMILES: O=Cc1cc(S(=O)(=O)NC(=O)c2cc(C(=O)O)ccn2)ccc1O
- IC50 (RNA demethylase ALKBH5 [2]): 0.55 µM
- IC50 (RNA demethylase ALKBH5 [3]): 3.4 µM
- IC50 (RNA demethylase ALKBH5 [4]): 0.45 µM

SMILES: O=C(O)c1ccnc(C(=O)NS(=O)(=O)c2ccc(-c3ccccc3)cc2)c1
- IC50 (RNA demethylase ALKBH5 [1]): 16.5 µM
